Earlier results as cited in patent publication US8410057B2, “Method of inducing T cell apoptosis by administering Altered Peptide Ligand” (Centro de Ingenieria Genetica y Biotecnologia, priority 2008, dated 2013).

Test system: monocytes and activated lamina propria T cells
Conditions: Crohn's disease patients; Van den Brande et al. 2003

Row | Substance | induction of apoptosis
1 | Etanercept | does not induce cell apoptosis
2 | infliximab: chimeric monoclonal antibody that binds to and neutralizes free and bound TNFα | induce apoptosis of monocytes and activated lamina propria T cells
